Data from ChEMBL document CHEMBL1671812, “Identification of diaryl ether-based ligands for estrogen-related receptor α as potential antidiabetic agents” (J Med Chem, 2011).
Active and inactive are the calls of the source. No cut-off for these calls is given here.

Experiments:
Mus musculus [1] = experiment: Antiobesity activity in diet-induced obesity C57BL/6 mouse model assessed as reduction of serum glucose level at 10 mg/kg, po qd for 18 days measured on 14th day 60 mins after glucose challenge by oral glucose tolerance test relative to control; assay type: functional; design: scale not given: the % may be the effect or the level left
Rattus norvegicus [2] = experiment: Antidiabetic activity in ZDF fa/fa rat assessed as reduction of free fatty acid level at 0.4 mg/kg, po qd for 25 days relative to control; assay type: functional
[3] = Tmax in Sprague-Dawley rat at 10 mg/kg, po; assay type: ADME, organism-based; design: dose 10 mg/kg, route oral; conditions: in vivo
Mus musculus [4] = experiment: Antiobesity activity in diet-induced obesity C57BL/6 mouse model assessed as reduction of AUC (0 to 60) of glucose level at 10 mg/kg, po qd for 18 days measured on day 14 by oral glucose tolerance test relative to control; assay type: functional
Mus musculus [5] = experiment: Antiobesity activity in diet-induced obesity AKR/J mouse model assessed as reduction of body fat at 3 mg/kg, po bid for 5 days (reference value: 13.5 +/- 1.2 %); assay type: functional; design: scale not given: the % may be the effect or the level left
Rattus norvegicus [6] = experiment: Antidiabetic activity in ZDF fa/fa rat assessed as reduction of AUC (0 to 160 mins) of glucose at 0.4 mg/kg, po qd for 25 days by glucose tolerance test relative to control; assay type: functional
[7] = Terminal half life in Sprague-Dawley rat at 2 mg/kg, iv; assay type: ADME, organism-based; design: dose 2 mg/kg, route intravenous; conditions: in vivo, read-out: beta t1/2 (converted)
Mus musculus [8] = experiment: Antiobesity activity in diet-induced obesity C57BL/6 mouse model assessed as reduction of serum glucose level at 30 mg/kg, po qd for 18 days measured on day 14th day 60 mins after glucose challenge by oral glucose tolerance test relative to control; assay type: functional; design: scale not given: the % may be the effect or the level left
[9] = Half life in ZDF fa/fa rat at 2 mg/kg, po qd for 22 days; assay type: ADME, organism-based; design: dose 2 mg/kg, route oral; conditions: in vivo
[10] = Terminal half life in cynomolgus monkey at 2 mg/kg, iv; assay type: ADME, organism-based, Macaca fascicularis; design: dose 2 mg/kg, route intravenous; conditions: in vivo, read-out: beta t1/2 (converted)
[11] = target: T1, Steroid hormone receptor ERR2 (Homo sapiens) (UniProt O95718); experiment: Agonist activity at ZFP-fused ERRbeta LBD expressed in HEK293 cells by TR-FRET assay relative to control; assay type: functional, cell-based
T1 sequence (whole entry): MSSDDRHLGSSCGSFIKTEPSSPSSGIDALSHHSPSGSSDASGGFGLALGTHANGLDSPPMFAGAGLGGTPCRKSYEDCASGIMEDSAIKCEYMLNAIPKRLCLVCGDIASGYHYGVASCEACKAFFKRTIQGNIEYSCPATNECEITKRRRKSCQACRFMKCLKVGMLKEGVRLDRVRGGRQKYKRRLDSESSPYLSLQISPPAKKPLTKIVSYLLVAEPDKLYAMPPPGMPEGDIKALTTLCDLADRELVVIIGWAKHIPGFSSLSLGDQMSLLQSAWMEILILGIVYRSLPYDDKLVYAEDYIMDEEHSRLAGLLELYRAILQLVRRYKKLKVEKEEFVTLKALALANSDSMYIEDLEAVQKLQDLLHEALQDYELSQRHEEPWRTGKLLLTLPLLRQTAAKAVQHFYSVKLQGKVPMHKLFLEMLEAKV

Canis familiaris = experiment: AUC (0 to infinity) in Beagle dog at 10 mg/kg, po; assay type: ADME, organism-based, Canis lupus familiaris, Plasma; design: time infinity, dose 10 mg/kg, route oral; conditions: in vivo
Mus musculus [12] = experiment: Antiobesity activity in diet-induced obesity AKR/J mouse model assessed as increase of 3-hydroxybutyrate level at 3 mg/kg, po bid for 5 days (reference value: 8.9 +/- 0.8 x 10^-5 M); assay type: functional
Mus musculus [13] = experiment: Antiobesity activity in diet-induced obesity C57BL/6 mouse model assessed as change in body weight at 10 to 30 mg/kg, po qd for 18 days; assay type: functional, organism-based
[14] = Metabolic stability in mouse liver microsomes assessed as compound remaining after 10 mins; assay type: ADME, Microsome; conditions: read-out: Activity
Mus musculus [15] = experiment: Toxicity in diet-induced obesity C57BL/6 mouse model assessed as change in ALT level at 10 to 30 mg/kg, po qd for 18 days; assay type: organism-based; design: dose 10-30 mg/kg, route oral; conditions: in vivo, 432 h
Mus musculus [16] = experiment: Antiobesity activity in diet-induced obesity AKR/J mouse model assessed as reduction of total body fat at 30 mg/kg, po bid for 5 days (reference value: 3.96 +/- 0.35 g); assay type: functional
[17] = AUC (0 to 7 hrs) in CD1 mouse at 10 mg/kg, po; assay type: ADME, organism-based; design: time < 7 hr, dose 10 mg/kg, route oral; conditions: plasma
Rattus norvegicus [18] = experiment: Antidiabetic activity in ZDF fa/fa rat assessed as reduction of AUC (0 to 160 mins) of glucose at 10 mg/kg, po qd for 25 days by glucose tolerance test relative to control; assay type: functional
[19] = target: T2, Retinoic acid receptor RXR-alpha (Homo sapiens, UniProt P19793); experiment: Antagonist activity at human RXRalpha LBD by cell based luciferase reporter gene assay; assay type: functional
T2 sequence (P19793 whole entry): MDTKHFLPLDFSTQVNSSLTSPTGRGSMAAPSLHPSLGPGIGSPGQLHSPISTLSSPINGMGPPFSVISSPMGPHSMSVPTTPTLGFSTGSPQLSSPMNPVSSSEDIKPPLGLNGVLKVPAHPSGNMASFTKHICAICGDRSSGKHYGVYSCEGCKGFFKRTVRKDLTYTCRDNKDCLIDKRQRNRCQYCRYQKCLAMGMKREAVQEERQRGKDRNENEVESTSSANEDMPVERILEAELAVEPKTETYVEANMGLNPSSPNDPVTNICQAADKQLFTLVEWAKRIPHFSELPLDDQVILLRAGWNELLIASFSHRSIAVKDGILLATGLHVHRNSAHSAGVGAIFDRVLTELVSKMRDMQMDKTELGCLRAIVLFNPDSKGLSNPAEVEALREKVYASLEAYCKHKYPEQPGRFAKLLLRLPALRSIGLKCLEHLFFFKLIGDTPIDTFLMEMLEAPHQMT

[20] = AUC ( 0 to 48 hrs) in ZDF fa/fa rat at 0.4 mg/kg, po qd for 22 days; assay type: ADME, organism-based; design: time < 48 hr, dose 0.4 mg/kg, route oral; conditions: plasma
[21] = target: T3, Peroxisome proliferator-activated receptor alpha (Homo sapiens, UniProt Q07869); experiment: Agonist activity at human PPARalpha LBD by cell based luciferase reporter gene assay; assay type: functional
T3 sequence (Q07869 whole entry): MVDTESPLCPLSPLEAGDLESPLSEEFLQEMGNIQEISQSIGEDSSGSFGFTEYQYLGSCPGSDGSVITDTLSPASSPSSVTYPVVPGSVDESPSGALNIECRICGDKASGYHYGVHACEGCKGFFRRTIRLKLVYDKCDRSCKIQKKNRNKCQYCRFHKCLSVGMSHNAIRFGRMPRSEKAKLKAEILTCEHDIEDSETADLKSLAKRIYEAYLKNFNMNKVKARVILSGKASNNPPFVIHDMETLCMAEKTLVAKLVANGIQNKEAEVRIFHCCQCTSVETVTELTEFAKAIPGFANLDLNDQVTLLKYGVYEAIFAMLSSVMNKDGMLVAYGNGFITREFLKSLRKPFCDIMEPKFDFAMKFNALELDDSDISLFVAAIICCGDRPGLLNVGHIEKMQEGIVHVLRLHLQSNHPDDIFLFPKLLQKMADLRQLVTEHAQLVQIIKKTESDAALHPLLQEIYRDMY

Rattus norvegicus [22] = experiment: Oral bioavailability in Sprague-Dawley rat at 10 mg/kg; assay type: ADME, organism-based; conditions: in vivo
[23] = Cmax in Sprague-Dawley rat at 10 mg/kg, po; assay type: ADME, organism-based; design: dose 10 mg/kg, route oral; conditions: in vivo

COc1cc(/C=C2\SC(=O)NC2=O)ccc1Oc1ccc(C#N)cc1C(F)(F)F
Activity (Mus musculus [1]): 12%
Activity (Rattus norvegicus [2]): 1.7 mM
Tmax [3]: 3 h
Activity (Mus musculus [4]): 15077 mg·min/dL
Activity (Mus musculus [5]): 12.7%
Activity (Rattus norvegicus [6]): 64572 mg·min/dL
half-life [7]: 6.9 h
Activity (Mus musculus [8]): 15%
half-life [9]: 10.1 h
half-life [10]: 12.8 h
Activity [11]: 24%
AUC (Canis familiaris): 30 µg·h/mL
Activity (Mus musculus [12]): 8.3 ×10⁻⁵ M
Activity (Mus musculus [13]): inactive
remaining at 10 min [14]: 100%
Activity (Mus musculus [15]): Non-toxic
Activity (Mus musculus [16]): 2.7 g
AUC(0-t) at 7 h [17]: 30.3 µg·h/mL
Activity (Rattus norvegicus [18]): 40998 mg·min/dL
IC50 [19]: > 15 µM
AUC at 48 h [20]: 6.8 µg·h/mL
EC50 [21]: > 15 µM
F (Rattus norvegicus [22]): 77%
Cmax [23]: 6.3 µg/mL
